# Measured values from patent US7709636B2, “Pyrazole sulfonylurea compound and herbicide” (Nissan Chemical Industries, Ltd., priority 2004, dated 2010).
# Tests used:
# direct sown rice [1] = test: Herbicidal effect test by foliage treatment; format: in vivo, Oryza sativa; details: 1.6 g/a; foliage treatment after growth of 14 days; 3 weeks after treatment
# Description: (§1) Herbicidal Effect Test by Foliage Treatment
# (§2) Sterilized diluvial soil was placed in a plastic box having a size of length 21 cm, width 13 cm and depth 7 cm, seeds of Echinochloa crus-galli, Digitaria adscendes, Setaria viridis, Avena fatua, Black-grass, Abutilon avicennae, Ambrosia elatior, Amaranthus retroflexus, Chenopodium album, Polygonum blumei, Stellaria media, Zea mays, Glycine max, Oryza sativa, Triticum aestivum and Beta vulgaris were sown interspatially, covered with about 1.5 cm of soil, and then the plants were grown by putting the box in a green house at 25 to 30° C. After growth of 14 days, the wettable powder of the present invention prepared according to Formulation Example 1 was diluted with water so as to give a predetermined formulation amount, and the foliage part was uniformly treated with the diluted wettable powder by use of a small-sized spray. The herbicidal effect for each plant was investigated 3 weeks after treatment with the herbicide according to the criteria indicated in Test Example 1.
# direct sown rice [2] = test: Herbicidal effect test by soil treatment; format: in vivo, Oryza sativa; details: 1.6 g/a, 3 weeks after treatment
# Description: (§3) Herbicidal Effect Test by Soil Treatment
# (§4) Sterilized diluvial soil was placed in a plastic box having a size of length 21 cm, width 13 cm and depth 7 cm, seeds Echinochloa crus-galli, Digitaria adscendes, Setaria viridis, Avena fatua, Black-grass, Abutilon avicennae, Ambrosia elatior, Amaranthus retroflexus, Chenopodium album, Polygonum blumei, Stellaria media, Zea mays (corn), Glycine max (soybean), Oryza sativa (rice), Triticum aestivum (wheat) and Beta vulgaris (beat) were sown interspatially, covered with about 1.5 cm of soil, and then the wettable powder of the present invention prepared according to Formulation Example 1 was diluted with water so as to give a predetermined formulation amount, and the surface of the soil was uniformly treated with the diluted wettable powder by use of a small-sized spray. The herbicidal effect for each plant was investigated 3 weeks after treatment with the herbicide according to the criteria indicated in Test Example 1.
# Digitaria adscendes [3] = test: Herbicidal effect test by foliage treatment; format: in vivo; details: 1.6 g/a; foliage treatment after growth of 14 days; 3 weeks after treatment
# Description: as §1, §2
# Amaranthus retroflexus [4] = test: Herbicidal effect test by foliage treatment; format: in vivo; details: 1.6 g/a; foliage treatment after growth of 14 days; 3 weeks after treatment
# Description: as §1, §2
# Beta vulgaris (beet) [5] = test: Herbicidal effect test by foliage treatment; format: in vivo; details: 1.6 g/a; foliage treatment after growth of 14 days; 3 weeks after treatment
# Description: as §1, §2
# soybean (Glycine max) [6] = test: Herbicidal effect test by foliage treatment; format: in vivo; details: 1.6 g/a; foliage treatment after growth of 14 days; 3 weeks after treatment
# Description: as §1, §2
# Black-grass = test: Herbicidal effect test by foliage treatment; format: in vivo; details: 1.6 g/a; foliage treatment after growth of 14 days; 3 weeks after treatment
# Description: as §1, §2
# corn (Zea mays) [7] = test: Herbicidal effect test by foliage treatment; format: in vivo; details: 1.6 g/a; foliage treatment after growth of 14 days; 3 weeks after treatment
# Description: as §1, §2
# Ambrosia elatior [8] = test: Herbicidal effect test by foliage treatment; format: in vivo; details: 1.6 g/a; foliage treatment after growth of 14 days; 3 weeks after treatment
# Description: as §1, §2
# [9] = test system: Triticum aestivum (wheat); test: Herbicidal effect test by foliage treatment; format: in vivo; details: 1.6 g/a; foliage treatment after growth of 14 days; 3 weeks after treatment
# Description: as §1, §2
# Setaria viridis [10] = test: Herbicidal effect test by foliage treatment; format: in vivo; details: 1.6 g/a; foliage treatment after growth of 14 days; 3 weeks after treatment
# Description: as §1, §2
# Echinochloa crus-galli [11] = test: Herbicidal effect test by foliage treatment; format: in vivo; details: 1.6 g/a; foliage treatment after growth of 14 days; 3 weeks after treatment
# Description: as §1, §2
# Stellaria media [12] = test: Herbicidal effect test by foliage treatment; format: in vivo; details: 1.6 g/a; foliage treatment after growth of 14 days; 3 weeks after treatment
# Description: as §1, §2
# Polygonum blumei [13] = test: Herbicidal effect test by foliage treatment; format: in vivo; details: 1.6 g/a; foliage treatment after growth of 14 days; 3 weeks after treatment
# Description: as §1, §2
# Abutilon avicennae [14] = test: Herbicidal effect test by foliage treatment; format: in vivo; details: 1.6 g/a; foliage treatment after growth of 14 days; 3 weeks after treatment
# Description: as §1, §2
# Chenopodium album [15] = test: Herbicidal effect test by foliage treatment; format: in vivo; details: 1.6 g/a; foliage treatment after growth of 14 days; 3 weeks after treatment
# Description: as §1, §2
# Avena fatua = test: Herbicidal effect test by foliage treatment; format: in vivo; details: 1.6 g/a; foliage treatment after growth of 14 days; 3 weeks after treatment
# Description: as §1, §2
# Scirpus juncoides [16] = test: Herbicidal effect test in submerged condition by treatment before weed-generation (1); format: in vivo; details: 0.64 g/a, water surface treated on day of sowing, 3 weeks after treatment
# Description: (§5) Herbicidal Effect Test in Submerged Condition by Treatment Before Weed-Generation (1)
# (§6) After alluvial soil was placed in a styrol cup of 1/30000 are, water was poured therein and mixed, and adjusted to a submerged condition of water depth 4 cm. After seeds of Echinochloa crus-galli, Scirpus juncoides and Monochoria vaginalis were sown in the cup, rice seedlings at 2.5th leaf stage were transplanted. On the day when the seeds were sown, the wettable powder of the present invention prepared according to Formulation Example 1 was diluted with water so as to give a predetermined formulation amount, and the surface of the water was treated with the diluted wettable powder. The plants were grown by putting the cup in a green house at 25 to 30° C., and investigated on herbicidal effect against each weed 3 weeks after treatment with the herbicide according to the following criteria.
# (§7) 5 Herbicidal rate 90% or more (almost complete death)
# (§8) 4 Herbicidal rate 70% or more and less than 90%
# (§9) 3 Herbicidal rate 40% or more and less than 70%
# (§10) 2 Herbicidal rate 20% or more and less than 40%
# (§11) 1 Herbicidal rate 5% or more and less than 20%
# (§12) 0 Herbicidal rate 5% or less (little effect)
# Monochoria vaginalis [17] = test: as above; format: in vivo; details: 0.64 g/a, water surface treated on day of sowing, 3 weeks after treatment
# Description: as §5, §6, §7, §8, §9, §10, §11, §12
# Echinochloa crus-galli [18] = test: as above; format: in vivo; details: 0.64 g/a, water surface treated on day of sowing, 3 weeks after treatment
# Description: as §5, §6, §7, §8, §9, §10, §11, §12
# Scirpus juncoides [19] = test: Herbicidal effect test in submerged condition by treatment during weed-growth stage (1); format: in vivo; details: 0.64 g/a, treated at 1st to 2nd leaf stage, 3 weeks after treatment
# Method: (§13) Herbicidal Effect Test in Submerged Condition by Treatment During Weed-Growth Stage (1) After alluvial soil was placed in a styrol cup of 1/30000 are, water was poured therein and mixed, and adjusted to a submerged condition of water depth 4 cm. After seeds of Echinochloa crus-galli, Scirpus juncoides and Monochoria vaginalis were sown in the cup, the plants were grown by putting the cup in a green house at 25 to 30° C. When Echinochloa crus-galli, Scirpus juncoides and Monochoria vaginalis reached 1st to 2nd leaf stage, the wettable powder of the present invention prepared according to Formulation Example 1 was diluted with water so as to give a predetermined formulation amount, and the surface of the water was treated with the diluted wettable powder. The herbicidal effect for each plant was investigated 3 weeks after treatment with the herbicide according to the criteria indicated in Test Example 1.
# Monochoria vaginalis [20] = test: as above; format: in vivo; details: 0.64 g/a, treated at 1st to 2nd leaf stage, 3 weeks after treatment
# Method: as §13
# Echinochloa crus-galli [21] = test: as above; format: in vivo; details: 0.64 g/a, treated at 1st to 2nd leaf stage, 3 weeks after treatment
# Method: as §13
# Digitaria adscendes [22] = test: Herbicidal effect test by soil treatment; format: in vivo; details: 1.6 g/a, 3 weeks after treatment
# Description: as §3, §4
# Amaranthus retroflexus [23] = test: Herbicidal effect test by soil treatment; format: in vivo; details: 1.6 g/a, 3 weeks after treatment
# Description: as §3, §4
# Beta vulgaris (beet) [24] = test: Herbicidal effect test by soil treatment; format: in vivo; details: 1.6 g/a, 3 weeks after treatment
# Description: as §3, §4
# soybean (Glycine max) [25] = test: Herbicidal effect test by soil treatment; format: in vivo; details: 1.6 g/a, 3 weeks after treatment
# Description: as §3, §4
# corn (Zea mays) [26] = test: Herbicidal effect test by soil treatment; format: in vivo; details: 1.6 g/a, 3 weeks after treatment
# Description: as §3, §4
# Ambrosia elatior [27] = test: Herbicidal effect test by soil treatment; format: in vivo; details: 1.6 g/a, 3 weeks after treatment
# Description: as §3, §4
# Setaria viridis [28] = test: Herbicidal effect test by soil treatment; format: in vivo; details: 1.6 g/a, 3 weeks after treatment
# Description: as §3, §4
# Echinochloa crus-galli [29] = test: Herbicidal effect test by soil treatment; format: in vivo; details: 1.6 g/a, 3 weeks after treatment
# Description: as §3, §4
# Stellaria media [30] = test: Herbicidal effect test by soil treatment; format: in vivo; details: 1.6 g/a, 3 weeks after treatment
# Description: as §3, §4
# Polygonum blumei [31] = test: Herbicidal effect test by soil treatment; format: in vivo; details: 1.6 g/a, 3 weeks after treatment
# Description: as §3, §4
# Abutilon avicennae [32] = test: Herbicidal effect test by soil treatment; format: in vivo; details: 1.6 g/a, 3 weeks after treatment
# Description: as §3, §4
# Chenopodium album [33] = test: Herbicidal effect test by soil treatment; format: in vivo; details: 1.6 g/a, 3 weeks after treatment
# Description: as §3, §4
smiles,measurement,setting,value
"COc1cc(OC)nc(NC(=O)NS(=O)(=O)c2c(C3=NOCC(CI)O3)c(Cl)nn2C)n1 (centres unmarked) [Compound 2, N-((4,6-dimethoxypyrimidin-2-yl)aminocarbonyl)-3-chloro-4-(5-iodomethyl-5H,6H-1,4,2-dioxadin-3-yl)-1-methylpyrazole-5-sulfonamide]","herbicidal effect, d: direct sown rice",direct sown rice [1],0 (Herbicidal rate 5% or less (little effect))
same,"herbicidal effect, d: direct sown rice",direct sown rice [2],0 (Herbicidal rate 5% or less (little effect))
same,"herbicidal effect, D: Digitaria adscendes",Digitaria adscendes [3],1 (Herbicidal rate 5% or more and less than 20%)
same,"herbicidal effect, J: Amaranthus retroflexus",Amaranthus retroflexus [4],0 (Herbicidal rate 5% or less (little effect))
same,"herbicidal effect, f: Beta vulgaris (beet)",Beta vulgaris (beet) [5],4 (Herbicidal rate 70% or more and less than 90%)
same,"herbicidal effect, c: soybean (Glycine max)",soybean (Glycine max) [6],4 (Herbicidal rate 70% or more and less than 90%)
same,"herbicidal effect, G: Black-grass",Black-grass,1 (Herbicidal rate 5% or more and less than 20%)
same,"herbicidal effect, b: corn (Zea mays)",corn (Zea mays) [7],4 (Herbicidal rate 70% or more and less than 90%)
same,"herbicidal effect, I: Ambrosia elatior",Ambrosia elatior [8],4 (Herbicidal rate 70% or more and less than 90%)
same,"herbicidal effect, e: Triticum aestivum (wheat)",[9],0 (Herbicidal rate 5% or less (little effect))
same,"herbicidal effect, E: Setaria viridis",Setaria viridis [10],1 (Herbicidal rate 5% or more and less than 20%)
same,"herbicidal effect, A: Echinochloa crus-galli",Echinochloa crus-galli [11],3 (Herbicidal rate 40% or more and less than 70%)
same,"herbicidal effect, M: Stellaria media",Stellaria media [12],5 (Herbicidal rate 90% or more (almost complete death))
same,"herbicidal effect, L: Polygonum blumei",Polygonum blumei [13],0 (Herbicidal rate 5% or less (little effect))
same,"herbicidal effect, H: Abutilon avicennae",Abutilon avicennae [14],5 (Herbicidal rate 90% or more (almost complete death))
same,"herbicidal effect, K: Chenopodium album",Chenopodium album [15],4 (Herbicidal rate 70% or more and less than 90%)
same,"herbicidal effect, F: Avena fatua",Avena fatua,0 (Herbicidal rate 5% or less (little effect))
same,"herbicidal effect, B: Scirpus juncoides",Scirpus juncoides [16],5 (Herbicidal rate 90% or more (almost complete death))
same,"herbicidal effect, C: Monochoria vaginalis",Monochoria vaginalis [17],5 (Herbicidal rate 90% or more (almost complete death))
same,"herbicidal effect, A: Echinochloa crus-galli",Echinochloa crus-galli [18],4 (Herbicidal rate 70% or more and less than 90%)
same,"herbicidal effect, B: Scirpus juncoides",Scirpus juncoides [19],4 (Herbicidal rate 70% or more and less than 90%)
same,"herbicidal effect, C: Monochoria vaginalis",Monochoria vaginalis [20],4 (Herbicidal rate 70% or more and less than 90%)
same,"herbicidal effect, A: Echinochloa crus-galli",Echinochloa crus-galli [21],2 (Herbicidal rate 20% or more and less than 40%)
same,"herbicidal effect, D: Digitaria adscendes",Digitaria adscendes [22],0 (Herbicidal rate 5% or less (little effect))
same,"herbicidal effect, J: Amaranthus retroflexus",Amaranthus retroflexus [23],1 (Herbicidal rate 5% or more and less than 20%)
same,"herbicidal effect, f: Beta vulgaris (beet)",Beta vulgaris (beet) [24],2 (Herbicidal rate 20% or more and less than 40%)
same,"herbicidal effect, c: soybean (Glycine max)",soybean (Glycine max) [25],0 (Herbicidal rate 5% or less (little effect))
same,"herbicidal effect, b: corn (Zea mays)",corn (Zea mays) [26],0 (Herbicidal rate 5% or less (little effect))
same,"herbicidal effect, I: Ambrosia elatior",Ambrosia elatior [27],3 (Herbicidal rate 40% or more and less than 70%)
same,"herbicidal effect, E: Setaria viridis",Setaria viridis [28],0 (Herbicidal rate 5% or less (little effect))
same,"herbicidal effect, A: Echinochloa crus-galli",Echinochloa crus-galli [29],0 (Herbicidal rate 5% or less (little effect))
same,"herbicidal effect, M: Stellaria media",Stellaria media [30],3 (Herbicidal rate 40% or more and less than 70%)
same,"herbicidal effect, L: Polygonum blumei",Polygonum blumei [31],0 (Herbicidal rate 5% or less (little effect))
same,"herbicidal effect, H: Abutilon avicennae",Abutilon avicennae [32],0 (Herbicidal rate 5% or less (little effect))
same,"herbicidal effect, K: Chenopodium album",Chenopodium album [33],4 (Herbicidal rate 70% or more and less than 90%)
